# Where “and” joins values, the source holds several entries; their conditions need not be identical. Identical values can stand only once.
# Target: Human CD38 (Homo sapiens (Human), UniProt P28907)
# Assay: Determination of IC50 against human CD38 (CD38 Inhibitor Screening Assay Kit, glycohydrolase activity, fluorescence)
# Format: biochemical
# Details: CD38 hydrolase enzyme, 30 min preincubation at room temperature, F-NAD substrate, excitation 300 nm, emission 410 nm; read-out: hCD38 IC50
# Protocol: CD38 hydrolase buffer (4×) was thawed on ice and 1×CD38 hydrolase buffer was prepared by diluting 4×CD38 hydrolase buffer with water. CD38 hydrolase enzyme was diluted to […] with 1×CD38 hydrolase buffer (10 ng/well). Master mix was prepared by mixing equal volumes of water and CD38 hydrolase buffer (4×) and 10 μl of the mix was added to all the wells. Following master mix addition, 10 μl of the inhibitors and 20 μl of CD38 hydrolase enzyme were added to the wells. For wells designated blank, 10 μl and 20 μl of 1× CD38 hydrolase buffer was added respectively in place of […]. The plate was covered and incubated 30 min at room temperature with slow shaking at 400 rpm. After 30 min incubation, the plate was removed and 10 μl of diluted F-NAD substrate was added to all the wells. The plate is incubated for 10 min, spun at 1200 rpm for 30 secs to remove bubbles and read in Tecan Spark using a fluorometer setting of excitation 300 nm and emission 410 nm. The reading for the blank was subtracted from all the values. IC50 for the test compounds were determined by using Graphpad prism software v7.0.
# Chain of Human CD38 (P28907 whole entry): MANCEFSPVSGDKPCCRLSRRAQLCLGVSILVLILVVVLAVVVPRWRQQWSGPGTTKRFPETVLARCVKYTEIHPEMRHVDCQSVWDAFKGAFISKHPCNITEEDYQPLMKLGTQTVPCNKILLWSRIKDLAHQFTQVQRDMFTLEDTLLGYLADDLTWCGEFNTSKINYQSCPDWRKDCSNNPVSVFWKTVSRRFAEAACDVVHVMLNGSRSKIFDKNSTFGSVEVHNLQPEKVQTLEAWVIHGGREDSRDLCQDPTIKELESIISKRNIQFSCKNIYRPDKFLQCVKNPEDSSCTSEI
row,SMILES,IC50
1,"CCS(=O)(=O)N[C@H]1CC[C@H](NC(=O)c2ccnc(-n3ccnc3)n2)CC1 [Ex. 53, N-((1r,4r)-4-(ethylsulfonamido)cyclohexyl)-2-(1H-imidazol-1-yl)pyrimidine-4-carboxamide]",16.6 nM and 8.8 nM
2,"COCCO[C@H]1CC[C@H](NC(=O)c2cc(-c3cncs3)nc(C(F)(F)F)c2)CC1 [Ex. 4, N-((1r,4r)-4-(2-methoxyethoxy)cyclohexyl)-2-(thiazol-5-yl)-6-(trifluoromethyl)isonicotinamide]",3500 nM
3,"COCCO[C@H]1CC[C@H](NC(=O)c2cc(C#N)cc(-n3ccnc3)n2)CC1 [Ex. 43, 4-Cyano-6-(1H-imidazol-1-yl)-N-((1r,4r)-4-(2-methoxyethoxy)cyclohexyl)picolinamide]",17 nM
4,"COCCO[C@H]1CC[C@H](NC(=O)c2cc(-c3cncs3)nc(-n3ccnc3)c2)CC1 [Ex. 1, N-((1r,4r)-4-(2-methoxyethoxy)cyclohexyl)-2-(thiazol-5-yl)-6-(1H-imidazol-1-yl)isonicotinamide]",60 nM
5,"COCCO[C@H]1CC[C@H](NC(=O)c2cc(-c3ccn(C)n3)nc(-n3ccnc3)c2)CC1 [Ex. 26, 2-(1H-imidazol-1-yl)-N-((1r,4r)-4-(2-methoxyethoxy)cyclohexyl)-6-(1-methyl-1H-pyrazol-3-yl)isonicotinamide]",150 nM
6,COCCO[C@H]1CC[C@H](NC(=O)c2cc(C(=O)O)nc(-n3ccnc3)n2)CC1 [Ex. 45],28 nM
7,"COCCO[C@H]1CC[C@H](NC(=O)c2cc(-c3cnn(C)c3)nc(-c3cncs3)n2)CC1 [Ex. 6, N-((1r,4r)-4-(2-methoxyethoxy)cyclohexyl)-6-(1-methyl-1H-pyrazol-4-yl)-2-(thiazol-5-yl)pyrimidine-4-carboxamide]",53 nM
8,"COCCO[C@H]1CC[C@H](NC(=O)c2cc(F)cc(-n3ccnc3)n2)CC1 [Ex. 20, 4-fluoro-6-(1H-imidazol-1-yl)-N-((1r,4r)-4-(2-methoxyethoxy)cyclohexyl)picolinamide]",21.5 nM
9,"COCCO[C@H]1CC[C@H](NC(=O)c2cc(C#N)nc(-n3ccnc3)n2)CC1 [Ex. 47, 6-cyano-2-(1H-imidazol-1-yl)-N-((1r,4r)-4-(2-methoxyethoxy)cyclohexyl)pyrimidine-4-carboxamide]",31 nM
10,"COCCO[C@H]1CC[C@H](NC(=O)c2cc(-c3cncs3)nc(-c3cncs3)n2)CC1 [Ex. 5, N-((1r,4r)-4-(2-methoxyethoxy)cyclohexyl)-2,6-di(thiazol-5-yl)pyrimidine-4-carboxamide]",256 nM
11,"COCCO[C@H]1CC[C@H](NC(=O)c2cc(C(N)=O)nc(-n3ccnc3)n2)CC1 [Ex. 48, 2-(1H-imidazol-1-yl)-N-((1r,4r)-4-(2-methoxyethoxy)cyclohexyl)pyrimidine-4,6-dicarboxamide]",18 nM
12,"COCCO[C@H]1CC[C@@H](NC(=O)c2cc(C)nc(-n3ccnc3)n2)CC1 [Ex. 60, 2-(1H-imidazol-1-yl)-N-((1s,4s)-4-(2-methoxyethoxy)cyclohexyl)-6-methylpyrimidine-4-carboxamide]",2.4 nM
13,"COCCO[C@H]1CC[C@H](NC(=O)c2cc(-n3ccnc3)cc(-c3cnn(C)c3)n2)CC1 [Ex. 30, 4-(1H-imidazol-1-yl)-N-((1r,4r)-4-(2-methoxyethoxy)cyclohexyl)-6-(1-methyl-1H-pyrazol-4-yl)picolinamide]",429 nM
14,"Cc1cc(C(=O)N[C@H]2CC[C@H](OC(F)F)CC2)nc(-n2ccnc2)n1 [Ex. 42, N-((1r,4r)-4-(difluoromethoxy)cyclohexyl)-2-(1H-imidazol-1-yl)-6-methylpyrimidine-4-carboxamide]",4.8 nM
15,"O=C(NC1CCCCC1)c1cccc(-n2ccnc2)n1 [Ex. 32, N-cyclohexyl-6-(1H-imidazol-1-yl)picolinamide]",53 nM
16,"COCCO[C@H]1CC[C@H](NC(=O)c2cc(C)nc(-n3ccnc3)c2)CC1 [Ex. 46, 2-(1H-imidazol-1-yl)-N-((1r,4r)-4-(2-methoxyethoxy)cyclohexyl)-6-methylisonicotinamide]",144 nM
17,"COCCO[C@H]1CC[C@H](NC(=O)c2cc(SC)nc(-c3cncs3)n2)CC1 [Ex. 7, N-((1r,4r)-4-(2-methoxyethoxy)cyclohexyl)-6-(methylthio)-2-(thiazol-5-yl)pyrimidine-4-carboxamide]",> 10000 nM
18,"COCCO[C@H]1CC[C@H](NC(=O)c2cc(-c3c(C)nn(C)c3C)cc(-n3ccnc3)n2)CC1 [Ex. 14, 6-(1H-imidazol-1-yl)-N-((1r,4r)-4-(2-methoxyethoxy)cyclohexyl)-4-(1,3,5-trimethyl-1H-pyrazol-4-yl)picolinamide]",24 nM

row,SMILES,IC50
1,"COCCO[C@H]1CC[C@H](NC(=O)c2cc(S(C)(=O)=O)cc(-n3ccnc3)n2)CC1 [Ex. 39, 6-(1H-imidazol-1-yl)-N-((1r,4r)-4-(2-methoxyethoxy)cyclohexyl)-4-(methylsulfonyl)picolinamide]",137 nM
2,"COCCO[C@H]1CC[C@H](NC(=O)c2cc(CO)nc(-n3ccnc3)n2)CC1 [Ex. 49, 6-(hydroxymethyl)-2-(1H-imidazol-1-yl)-N-((1r,4r)-4-(2-methoxyethoxy)cyclohexyl)pyrimidine-4-carboxamide]",15 nM
3,"O=C(N[C@H]1CC[C@H](O)CC1)c1cccc(-n2ccnc2)n1 [Ex. 31, N-((1r,4r)-4-hydroxycyclohexyl)-6-(1H-imidazol-1-yl)picolinamide]",54 nM
4,"COCCO[C@H]1CC[C@H](NC(=O)c2cc(-c3cncs3)nc(-c3cncs3)c2)CC1 [Ex. 2, N-((1r,4r)-4-(2-methoxyethoxy)cyclohexyl)-2,6-di(thiazol-5-yl)isonicotinamide]",> 100 nM
5,"COCCO[C@H]1CC[C@H](NC(=O)c2cc(-n3ccnc3)nc(-n3ccnc3)c2)CC1 [Ex. 22, 2,6-di(1H-imidazol-1-yl)-N-((1r,4r)-4-(2-methoxyethoxy)cyclohexyl)isonicotinamide]",17.9 nM
6,"Cc1cc(C(=O)N[C@H]2CC[C@H](OCCO)CC2)nc(-n2ccnc2)n1 [Ex. 44, N-((1r,4r)-4-(2-hydroxyethoxy)cyclohexyl)-2-(1H-imidazol-1-yl)-6-methylpyrimidine-4-carboxamide]",12 nM
7,"CO[C@]1(C)CC[C@@H](NC(=O)c2ccnc(-n3ccnc3)n2)CC1 [Ex. 54, 2-(1H-imidazol-1-yl)-N-((1r,4r)-4-methoxy-4-methylcyclohexyl)pyrimidine-4-carboxamide]",28 nM
8,"COCCO[C@H]1CC[C@H](NC(=O)c2cc(C3CC3)nc(-n3ccnc3)n2)CC1 [Ex. 56, 6-cyclopropyl-2-(1H-imidazol-1-yl)-N-((1r,4r)-4-(2-methoxyethoxy)cyclohexyl) pyrimidine-4-carboxamide]",50 nM
9,"COCCO[C@H]1CC[C@H](NC(=O)c2cc(OC)cc(-n3ccnc3)n2)CC1 [Ex. 62, 6-(1H-imidazol-1-yl)-4-methoxy-N-((1r,4r)-4-(2-methoxyethoxy)cyclohexyl) picolinamide]",86.7 nM
10,"COCCO[C@H]1CC[C@H](NC(=O)c2cc(SC)cc(-n3ccnc3)n2)CC1 [Ex. 37, 6-(1H-imidazol-1-yl)-N-((1r,4r)-4-(2-methoxyethoxy)cyclohexyl)-4-(methylthio)picolinamide]",42 nM
11,"[2H]c1nc([2H])n(-c2nc(C)cc(C(=O)N[C@H]3CC[C@H](OCCOC)CC3)n2)c1[2H] [Ex. 50, 2-(1H-imidazol-1-yl-d3)-N-((1r,4r)-4-(2-methoxyethoxy)cyclohexyl)-6-methylpyrimidine-4-carboxamide]",14 nM
12,"COCCO[C@H]1CC[C@H](NC(=O)c2cc(-c3cnn(C)c3)nc(-c3cncs3)c2)CC1 [Ex. 3, N-((1r,4r)-4-(2-methoxyethoxy)cyclohexyl)-2-(1-methyl-1H-pyrazol-4-yl)-6-(thiazol-5-yl)isonicotinamide]",34 nM
13,"COCCO[C@H]1CC[C@H](NC(=O)c2cc(C(C)O)cc(-n3ccnc3)n2)CC1 (stereo partly drawn) [Ex. 38, 4-(1-Hydroxyethyl)-6-(1H-imidazol-1-yl)-N-((1r,4r)-4-(2-methoxyethoxy)cyclohexyl)picolinamide]",310 nM
14,"COCCO[C@H]1C[C@H](NC(=O)c2ccnc(-n3ccnc3)n2)C1 [Ex. 65, 2-(1H-imidazol-1-yl)-N-((1r,3r)-3-(2-methoxyethoxy)cyclobutyl)pyrimidine-4-carboxamide]",227 nM
15,"COCCO[C@H]1CC[C@H](NC(=O)c2cc(C(F)F)nc(-n3ccnc3)n2)CC1 [Ex. 52, 6-(Difluoromethyl)-2-(1H-imidazol-1-yl)-N-((1r,4r)-4-(2-methoxyethoxy)cyclohexyl)pyrimidine-4-carboxamide]",89 nM
16,"COCCO[C@H]1CC[C@H](NC(=O)c2cc(C(F)(F)F)nc(-n3ccnc3)n2)CC1 [Ex. 36, 2-(1H-imidazol-1-yl)-N-((1r,4r)-4-(2-methoxyethoxy)cyclohexyl)-6-(trifluoromethyl)pyrimidine-4-carboxamide]",39 nM
17,"COCCO[C@H]1CC[C@H](NC(=O)c2cc(-c3cnn(C(C)C)c3)nc(-n3ccnc3)c2)CC1 [Ex. 25, 2-(1H-imidazol-1-yl)-6-(1-isopropyl-1H-pyrazol-4-yl)-N-((1r,4r)-4-(2-methoxyethoxy)cyclohexyl)isonicotinamide]",12 nM
18,"CCn1cc(-c2cc(C(=O)N[C@H]3CC[C@H](OCCOC)CC3)cc(-n3ccnc3)n2)cn1 [Ex. 24, 2-(1-ethyl-1H-pyrazol-4-yl)-6-(1H-imidazol-1-yl)-N-((1r,4r)-4-(2-methoxyethoxy)cyclohexyl)isonicotinamide]",153 nM
